Test results published in ChEMBL document CHEMBL4312044, “Pharmacokinetics-Driven Optimization of 7-Methylimidazo[1,5-a]pyrazin-8(7H)-one as Novel BRD4 Inhibitors” (ACS Med Chem Lett, 2019).
The source made the active and inactive calls. The calls are words filed in the database; no cut-off is given here.

Key:
[1] = system: HL-60; assay: Antiproliferative activity against human HL60 cells assessed as reduction in cell viability by MTT assay; assay type: functional, cell-based
[2] = target: T1, Bromodomain-containing protein 4 (Homo sapiens, UniProt O60885); assay: Inhibition of BRD4 bromodomain1 (unknown origin) using peptide H4 as substrate incubated for 15 mins followed by substrate addition and measured after 1 hr by alphascreen assay
[3] = system: BXPC-3; assay: Antiproliferative activity against human BxPC3 cells assessed as reduction in cell viability at 2 uM by MTT assay relative to control; assay type: functional; conditions: for inhibition at 2 µM: Homo sapiens, BXPC-3
[4] = Metabolic stability in mouse liver microsomes assessed as residue remaining at 10 uM incubated for 20 and 40 mins; assay type: ADME, Microsome; conditions: read-out: Stability
[5] = target: T1, Bromodomain-containing protein 4; assay: Inhibition of BRD4 bromodomain2 (unknown origin) using peptide H4 as substrate incubated for 15 mins followed by substrate addition and measured after 1 hr by alphascreen assay
[6] = Metabolic stability in human liver microsomes assessed as residue remaining at 10 uM incubated for 20 and 40 mins; assay type: ADME, Microsome; conditions: read-out: Stability
[7] = Metabolic stability in rat liver microsomes assessed as residue remaining at 10 uM incubated for 20 and 40 mins; assay type: ADME, Microsome; conditions: read-out: Stability
[8] = system: Raji; assay: Antiproliferative activity against human Raji cells assessed as reduction in cell viability at 2 uM by MTT assay relative to control; assay type: functional; conditions: for inhibition at 2 µM: Homo sapiens, Raji
[9] = system: BXPC-3; assay: Antitumor activity against human BxPC3 cells xenografted in BALB/c SCID mouse assessed as reduction in tumor growth inhibition at 30 mg/kg, ip bid measured on day 14 relative to control; assay type: functional; conditions: BXPC-3, ip, 336 h, read-out: TGI
[10] = Toxicity in BALB/c SCID mouse assessed as reduction in body weight at 5 and 50 mg/kg, ip measured on day 14; assay type: organism-based; conditions: in vivo
[11] = system: Mus musculus; assay: Upregulation of […] in BALB/c SCID mouse xenogrfted with human BxPC3 cells at 50 mg/kg, ip measured on day 14 by immunohistochemical analysis; assay type: functional, organism-based
[12] = system: Mus musculus; assay: Down regulation of c-Myc in BALB/c SCID mouse xenogrfted with human BxPC3 cells at 50 mg/kg, ip measured on day 14 by immunohistochemical analysis; assay type: functional, organism-based
[13] = system: BXPC-3; assay: Antitumor activity against human BxPC3 cells xenografted in BALB/c SCID mouse assessed as suppression of cell proliferation at 50 mg/kg, ip measured on day 14 by Ki-67 staining based assay; assay type: functional, organism-based
[14] = system: BXPC-3; assay: Inhibition of colony formation in human BxPC3 cells at 2 uM relative to control; assay type: functional
[15] = system: BXPC-3; assay: Antitumor activity against human BxPC3 cells xenografted in BALB/c SCID mouse assessed as reduction in tumor growth inhibition at 50 mg/kg, ip measured on day 14 relative to control; assay type: functional; conditions: BXPC-3, ip, 336 h, read-out: TGI
[16] = system: BXPC-3; assay: Antitumor activity against human BxPC3 cells xenografted in BALB/c SCID mouse assessed as reduction in tumor growth inhibition at 5 mg/kg, ip measured on day 14 relative to control; assay type: functional; conditions: BXPC-3, ip, 336 h, read-out: TGI
[17] = Drug localization in nuclei of human BxPC3 cells at 2 uM incubated for 0.5 hrs by Hoechst 33342 staining based microscopic analysis; assay type: ADME, cell-based; conditions: bxpc-3, 0.5 h

SMILES | IC50 [1] [nM] | IC50 [2] [nM] | inhibition at 2 µM [3] [%] | remaining at 40 min, 10 µM [4] [%] | IC50 [5] [nM] | remaining at 40 min, 10 µM [6] [%] | remaining at 40 min, 10 µM [7] [%] | inhibition at 2 µM [8] [%] | inhibition in vivo at 30 mg/kg [9] [%] | inhibition (INH) [3] [%] | inhibition (INH) [8] [%] | Activity [10] | Activity [11] | Activity [12] | Activity [13] | inhibition at 2 µM [14] [%] | inhibition in vivo at 50 mg/kg [15] [%] | inhibition in vivo at 5 mg/kg [16] [%] | Drug uptake [17]
CCS(=O)(=O)Nc1ccc(Oc2ccc(F)cc2F)c(-c2cn(C)c(=O)c3cncn23)c1 | 110 | 33 | 33.2 | 13.2 | 25 | 21.2 | 17.6 | 46.2 |  |  |  |  |  |  |  |  |  |  | 
Cc1noc(C)c1-c1ccc(Oc2ccc(NS(C)(=O)=O)cc2-c2cn(C)c(=O)c3cncn23)cc1 | 1120 | 141 | 26.4 |  | 153 |  |  | 23.7 |  |  |  |  |  |  |  |  |  |  | 
Cn1cc(-c2cc(NS(C)(=O)=O)ccc2Oc2ccc(Br)cc2)n2cncc2c1=O | 230 | 37 | 34.8 | 61.2 | 44 | 66.7 | 54.2 | 33.1 |  |  |  |  |  |  |  |  |  |  | 
Cc1noc(C)c1-c1cccc(Oc2ccc(NS(C)(=O)=O)cc2-c2cn(C)c(=O)c3cncn23)c1 | 1230 | 162 | 31.7 |  | 179 |  |  | 28.9 |  |  |  |  |  |  |  |  |  |  | 
O=c1[nH]cc(F)c(=O)[nH]1 [FLUOROURACIL] |  |  |  |  |  |  |  |  | 67 |  |  |  |  |  |  |  |  |  | 
CCS(=O)(=O)Nc1ccc(Oc2cccc(-c3c(C)noc3C)c2)c(-c2cn(C)c(=O)c3cncn23)c1 | 530 | 92 | 25.1 |  | 81 |  |  | 19.7 |  |  |  |  |  |  |  |  |  |  | 
Cn1cc(-c2cc(NS(C)(=O)=O)ccc2Oc2ccc(F)cc2)n2cncc2c1=O | 370 | 44 | 25.3 | 75.9 |  | 100 | 78 | 24.2 |  |  |  |  |  |  |  |  |  |  | 
CCS(=O)(=O)Nc1ccc(Oc2cc(F)c(F)c(F)c2)c(-c2cn(C)c(=O)c3cncn23)c1 | 590 | 46 | 28.7 | 36 | 140 | 55.8 | 54.3 | 46 |  |  |  |  |  |  |  |  |  |  | 
Cc1sc2c(c1C)C(c1ccc(Cl)cc1)=N[C@@H](CC(=O)OC(C)(C)C)c1nnc(C)n1-2 | 870 |  |  |  |  |  |  |  |  | 31.1 | 47.9 |  |  |  |  |  |  |  | 
CCS(=O)(=O)Nc1ccc(Oc2ccc(-c3c(C)noc3C)cc2)c(-c2cn(C)c(=O)c3cncn23)c1 | 510 | 64 | 23.2 | 48.2 | 50 | 54.3 | 59.1 | 22.9 |  |  |  |  |  |  |  |  |  |  | 
CCS(=O)(=O)Nc1ccc(Oc2cc(C)ccc2F)c(-c2cn(C)c(=O)c3cncn23)c1 | 270 | 46 | 28.8 | 4.6 | 21 | 14.1 | 5.7 | 49.9 |  |  |  |  |  |  |  |  |  |  | 
CCS(=O)(=O)Nc1ccc(Oc2ccc(F)cc2)c(-c2cn(C)c(=O)c3cncn23)c1 | 45 | 30 | 38.4 | 65.6 | 29 | 95.2 | 76.2 | 39.5 |  |  |  | Non-Toxic | Active | Active | Active | > 50 | 65 | 22 | Active
CCS(=O)(=O)Nc1ccc(Oc2cc(F)ccc2C)c(-c2cn(C)c(=O)c3cncn23)c1 | 440 | 22 | 2.9 | 11.2 | 34 | 13.2 | 7.6 | 33.8 |  |  |  |  |  |  |  |  |  |  | 
CCS(=O)(=O)Nc1ccc(Oc2ccc(C(C)C)cc2)c(-c2cn(C)c(=O)c3cncn23)c1 | 110 | 49 | 35.4 | 17.2 | 36 | 13.1 | 3.9 | 50.4 |  |  |  |  |  |  |  |  |  |  | 
CCS(=O)(=O)Nc1ccc(Oc2ccc(F)cc2F)c(-c2cn(C)c(=O)c3[nH]ccc23)c1 [MIVEBRESIB] | 120 | 39 | 42.7 | 60.9 | 47 | 60.8 | 69 | 51.2 |  |  |  |  |  |  |  |  |  |  | 
Cn1cc(-c2cc(NS(C)(=O)=O)ccc2Oc2cccc(Br)c2)n2cncc2c1=O | 450 | 57 | 36.1 | 67.2 | 61 | 45.9 | 34.9 | 29.4 |  |  |  |  |  |  |  |  |  |  | 
